Earlier results on 1 molecule are cited in patent US20030004142A1, “Use of NSAIDs for prevention and treatment of cellular abnormalities of the lung or bronchial pathway” (priority 2001, published 2003).

Data set [1] deals with OPC cell lines. The settings on record: all OPC cell lines tested.
In data set [2] the test system is OPC cell lines. Particulars: all OPC cell lines tested. The source holds these as a separate data set.

For the molecule `O=C(c1ccccc1)c1ccc2n1CCC2C(=O)O` (stereo not shown) [ketorolac, (.+−.)5(benzoyl)-2,3-dihydro-1H-pyrrolizine-1carboxylic acid], in the data set on OPC cell lines [1], the PGE2 production entry was “continuously and significantly decreased”. In the data set on OPC cell lines [2], the IL-6 levels result is “continuously and significantly decreased”; the IL-8 levels result was “continuously and significantly decreased”. Further, the “OPC growth in vivo” value with OPC was “reduced OPC growth in vivo”.
